In patent publication US9458492B2, “Methods and cells for identifying RIG-I pathway regulators” (Kineta, Inc., priority 2011, dated 2016):
Entries after “also recorded” stand apart in the source; their conditions may differ.

Key:
Dengue virus serotype 2 = assay: Dengue virus protein western blot in HEK 293 cells; format: cell-based; settings: 0.1 uM, pre-treated 18 hours, MOI=1.0, 48 hours
Procedure: HEK 293 cells were seeded to a confluency of 80% in a 6-well dish. Cells were grown for 18 hours under normal growth conditions. Cells were treated with the indicated concentration of KIN101 in media containing 0.5% DMSO for 18 hours. The next day drug was removed from treated cells and cells were infected with Dengue virus serotype 2 at an MOI=1.0; infected cells were incubated under normal growth conditions for 48 hours. For Dengue virus analysis whole cell lysates were prepared and analyzed by western blot for Dengue virus specific proteins.

IRF-3 [1] = assay: Immunofluorescent assay for nuclear translocation of IRF-3 in Huh7 cells; format: cell-based, human; settings: 10 μM, 18 h
Procedure: Huh 7 cells were seeded in clear bottom 96-well tissue culture plates at a density of 5×10^3 cells per well and grown for 24 hours. Cells were treated with compounds at final concentrations of 20 μM and 10 μM in media containing 0.5% DMSO. Negative control cells contain 0.5% DMSO only and positive control cells were infected with 10 HA of Sendai virus. […] Staining was performed as directed by instructions in the Cellomics translocation kit (Thermo Scientific). Rabbit polyclonal antibody against IRF-3 was used (1:400). Secondary anti-rabbit antibody conjugated to Dylight 488 (FITC equivalent) and Hoescht dye (nuclear stain) were used for detection of cellular IRF-3 and cell nuclei. Following secondary antibody incubation the monolayers were washed and left in 100 μL wash buffer for imaging. IRF-3 (FITC) and nuclear staining (DAPI) were viewed and quantitated by inverted microscope. Images were taken using MetaMorph software and saved as high resolution image files. Compound treatments were done in triplicate.

ISG54 promoter = ISG54 promoter luciferase reporter assay / high-throughput screen in Huh 7 cells; format: cell-based, human
Procedure: A compound referred to herein as “KIN101” was identified by the screening methods disclosed herein as a RIG-I modulator. Huh 7 cells stably expressing a luciferase cistron driven by the ISG54 promoter were treated with KIN101 for 18 hours and then analyzed for luciferase production. […] Huh 7 cells were stably transfected with a luciferase promoter construct driven by the consensus ISG54 promoter. The following sequence was inserted into the pGL4.17 construct (Promega) using the restriction sites indicated (underlined): Reporter cell lines were cultured under antibiotic selection until seeding. Cells were seeded in white opaque bottom 96-well tissue culture plates at a density of 1×10^4 cells/well and grown for 24 hours without antibiotic selection. […] The remainder of the wells were treated with compound diluted to a final concentration of 10 μM in media containing 0.5% DMSO. Cells were incubated with control or compound treatment for 24 hours. Steady-Glo luciferase reagent (Promega) was added at 50 μL per well, mixed thoroughly, and incubated at room temperature for 20 minutes. Luminescence was quantitated per well using a luminometer (Berthold). Confirmation of initial hits was performed in triplicate.

RSV = RSV plaque formation in HeLa cells; format: cell-based, respiratory syncitial virus (RSV); settings: MOI=1.0 or 0.1, 10 uM in agar overlay, 3-4 days
Procedure: HeLa cells were seeded to 90% confluency and infected with RSV at MOI=1.0 (1^3 dilution) or MOI=0.1 (1^4 dilution) for 2 hours. Virus was removed and cells were overlayed with agar in the presence of KIN101 10 uM. Infected cells were incubated for 3-4 days to allow for RSV plaque formation. Plaques were visualized by staining with crystal violet.

HCV-2a = HCV-2a antiviral assays in Huh 7 cells (immunofluorescence, qPCR); format: cell-based, Hepatitis C virus; settings: Huh7 cells, HCV-2a MOI 1.0
Procedure: Huh 7 cells were treated with KIN101 for 24 hours and then infected with HCV-2a MOI=1.0. Cells were grown for an additional 48 hours and then stained for HCV proteins. The number of infected cells versus concentration of KIN101 added was plotted in panel A.
Huh 7 cells were pre-treated with KIN101 at 10 uM and grown for 18 hours. Cells were then infected with HCV-2a MOI=1.0 and grown for an additional 72 hours. Supernatants from infected cells were harvested, HCV RNA was purified and viral RNA quantitated utilizing Real Time PCR with HCV specific primers. Cells infected with HCV that were not KIN101-treated were utilized as a control and values set to 100% infection rate. Interferon-alpha was used as a positive control for HCV inhibition.
Huh 7 cells were infected with HCV-2a MOI=1.0 and 4 hours following infection compounds or interferon were added to infected cells. The remainder of experiment was performed as described for FIG. 7B.
Huh 7 cells were seeded as described above for the IRF-3 immunofluorescent assay. Cells were treated with 10 μM compound in media containing 0.5% DMSO. […] The number of infected cells was quantitated based on positive staining. […]
Huh 7 cells were seeded and treated as described above for the HCV antiviral assay. […] The genome copies of HCV2a in 5 μL of RNA purified from supernatants was quantitated by qPCR. […]

IRF-3 [2] = assay: IRF-3 nuclear translocation in cells expressing HCV NS3-4A protease (viral countermeasure); settings: human osteosarcoma cells expressing HCV NS3-4A protease, 10 μM, 18 h
Procedure: Human osteosarcoma cells were stably transformed with the HCV NS3-4A protease coding sequence under control of a tetracycline inducible promoter. Cells were grown in the presence of tetracycline to keep expression of HCV protease off. […] Sendai virus infection was used as a control for IRF-3 translocation that was inhibited by HCV NS3-4A protease. Mock-treated cells were grown in media containing 0.5% DMSO. Images were analyzed on an Array Scan VTI to quantitate the IRF-3 staining in the nucleus and cytoplasm.
U2OS NS3/4A cells were thoroughly washed to remove Tetracycline and then seeded for the assay in the absence of Tetracycline to enable NS3/4A expression. Compound treatments were done as described above for Huh 7 cells.

MRC5 cells = assay: Expression microarray analysis of KIN101-treated MRC5 cells; format: cell-based, human; settings: 10 μM
Procedure: Expression microarray analysis and bioinformatics were performed as follows. Total RNA isolation and mRNA amplification were performed on equal masses of total RNA from MRC5 cells treated with either DMSO, negative control, or 10 μM KIN101 at 20 hours post treatment, and from MRC5 cells infected with Sendai virus at 20 hours post infection. Probe labeling and microarray slide hybridization were performed with the Agilent Whole Human Genome microarrays, wherein each microarray contains 44K probes, corresponding to approximately 41,000 human genes. Slides were scanned with an Agilent DNA microarray scanner, and the resulting images were analyzed using Agilent Feature Extractor (AFE) version 9.5.3.1. All data were entered into a custom-designed Oracle 9i-backed relational database (Labkey, Inc., Seattle, Wash.) and uploaded into Rosetta Resolver System 7.2 (Rosetta Biosoftware) and Spotfire Decision Site 9.1.1 (Spotfire AB) for analysis and visualization. […] Functional analysis of statistically significant gene expression changes was performed with IPA® (Ingenuity Systems, Inc., Redwood City, Calif.). This software analyzes RNA expression data in the context of known biological response and regulatory networks as well as other higher-order response pathways. IPA functional analysis identified biological functions and/or diseases that were most significant among differentially regulated genes. In the functional networks, genes are represented as nodes, and the biological relationship between 2 nodes is represented as an edge (line). All edges are supported by at least 1 published reference or from canonical information stored in the Ingenuity Pathways Knowledge Base. MRC5 cells were treated with KIN101 (10 μM) or a negative control (selected from the diversity library for having no activity in screening assays) for 20 h. Sendai virus infection was used as a positive control for the up-regulation of innate immune pathways. Total RNA was purified from triplicate samples to enable statistical analysis of the microarray data.

[3] = test system: proteins downstream of IRF activation; assay: Western blot of IRF centric gene products in treated cells; format: cell-based, human; settings: after KIN101 treatment; IFN-β positive control
Description: Western blot was used to quantitate levels of IRF centric gene products in human whole cell lysates from cells treated with KIN101.

actin promoter = actin promoter luciferase counter screen in Huh 7 cells; format: cell-based, human; settings: 10 uM
Huh7 cells = format: cell-based, human
Procedure: To assess a potential effect of KIN101 on cellular metabolism, Huh7 cells were grown for 48 hours with increasing doses of KIN101 and analyzed using an MTS assay (the higher the O.D. the more metabolism occurring).
Huh 7 cells were seeded in clear bottom 96-well tissue culture plates and grown for 24 hours. Seeded cells were treated with increasing concentrations of compound (0, 5, 10, 20, and 50 μM in media containing 0.5% DMSO) for 24 hours. Negative control wells contained 0.5% DMSO only and positive control for cytotoxicity was examined using an EMCV infection which causes 100% cytopathic effect. The proportion of viable cells was calculated using a cell viability assay that measures conversion of a tetrazolium compound [[…]-5-(3-carboxymethoxyphenyl)-2-(4-sulfophenyl)-2H-tetrazolium, inner salt; MTS] to a colored formazan compound in live cells. The conversion of MTS to formazan was detected by a 96-well microtiter plate reader, and the resulting optical densities (O.D.) were used directly to estimate cell viability. Cells were incubated for three hours in the presence of one-step reagent (Cell Titer One, Promega) before O.D. reading was done. Experiments were performed in triplicate.

RSV-A2 = assay: RSV viral RNA by Real Time PCR in HeLa supernatants; format: cell-based, respiratory syncitial virus (RSV); settings: RSV-A2 MOI=1.0, 48 hours
Procedure: HeLa cells were infected with RSV-A2 MOI=1.0 and subsequently treated with KIN101 at the indicated concentrations and grown for 48 hours. Supernatants from infected cells were harvested, RSV RNA was purified and viral RNA quantitated utilizing Real Time PCR with RSV specific primers. Cells infected with RSV that were not KIN101-treated were utilized as a control.

[4] = test system: Influenza A virus WSN strain; assay: Influenza A antiviral assays (NP ELISA, western blot); format: cell-based; settings: NP protein ELISA / western blot
RSV A2 strain = assay: RSV-infected HeLa cell viability (trypan blue count); format: cell-based, respiratory syncitial virus (RSV); settings: HeLa cells, RSV A2 MOI=1.0, treated 48 hours
Procedure: HeLa cells were infected with RSV A2 strain MOI=1.0 and were then treated with KIN101 for 48 hours. Cells were grown under normal growth conditions and cell viability was determined by counting the number of live cells and comparing drug treated and RSV infected cells to infected cells that were mock treated (no drug; vehicle alone). Cells were stained with trypan blue and counted using a hemacytometer. The number of live cells versus concentration of KIN101 added was plotted.

[5] = 20 h, ANOVA p-value <0.01, >2 fold change

For `CS(=O)(=O)Oc1ccc2c(=O)c(-c3ccc(Br)cc3)coc2c1` [KIN101], the “inhibition of Dengue virus protein accumulation” value (Dengue virus serotype 2) was “substantially complete inhibition”, the IRF-3 nuclear translocation (IRF-3 [1]) was “induced nuclear translocation of IRF-3; also recorded: induction of IRF-3 nuclear translocation” and the “hit in high-throughput screen for ISG54 luciferase reporter activity (RIG-I agonist activity)” value (ISG54 promoter; 20,000-member diversity library screened at 10 μM, four standard deviation threshold) was “hits”. The “luciferase expression under control of the ISG54 promoter” value (ISG54 promoter; Huh 7 cells, treated 18 hours, increasing doses) was “dose dependent increase in luciferase expression”, the “number and size of RSV induced plaques” value (RSV) was “decreases the number and size of viral induced plaques” and the “antiviral activity against HCV” value (HCV-2a) was “antiviral activity”. The “IRF-3 nuclear translocation in the presence of viral countermeasure” value (IRF-3 [2]) was “induction of IRF-3 nuclear translocation”, the “differentially expressed genes compared to DMSO treatment” value (MRC5 cells; [5]) was 75 genes and the “down-regulated genes compared to DMSO treatment” value (MRC5 cells; [5]) was 11 genes. The “up-regulated genes compared to DMSO treatment” value (MRC5 cells; [5]) was 64 genes, the “expression of immune pathways” value (MRC5 cells; 20 hours post treatment) was “induced expression of discrete immune pathways centered on IRF signaling” and the “abundance of proteins downstream of IRF activation (Western blot)” value [3] was “increased abundance of proteins downstream of IRF activation”. For the same compound, the “expression of luciferase under control of the actin promoter” value (actin promoter) was “did not increase expression of luciferase”, the “effect on cellular metabolism (MTS assay)” value (Huh7 cells) was “did not affect cellular metabolism” and the “amount of RSV viral RNA produced by infected cells” value (RSV-A2) was “decreases the amount of RSV viral RNA produced by infected cells”. For the same compound, the “antiviral activity against Influenza A” value [4] was “antiviral activity” and the “protection from RSV induced cytopathic effects and cell death” value (RSV A2 strain) was “protects cells from RSV induced cytopathic effects and cell death”.
